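Dose response: 5 concentrations. Exposure: 48 h. Format: 96-well plates. Endpoint: linear interpolation; highest concentration if not reached. GI50: concentration for 50% inhibition of growth.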 Activity calls are given as the source filed them. No stated cut-off is given here; in the data, active = GI50 up to about 1.1 µM and inactive = higher.
Assays:
Experiment in all cases: NCI-60 cell line screen, 48 h
[1] = test system: M19-MEL
[2] = test system: SF-539
[3] = test system: U-251
[4] = test system: NCI-H460
[5] = test system: HOP-92
[6] = test system: LOX IMVI
[7] = test system: TK-10
[8] = test system: HCT-15
[9] = test system: SW-620
[10] = test system: NCI-H522
[11] = test system: SNB-19
[12] = test system: MOLT-4
[13] = test system: HOP-62
[14] = test system: SN12C
[15] = test system: SK-MEL-2

Row | SMILES | GI50 [1] | GI50 [2] | GI50 [3] | GI50 [4] | GI50 [5] | GI50 [6] | GI50 [7] | GI50 [8] [µM] | GI50 [9] | GI50 [10] | GI50 [11] | GI50 [12] | GI50 [13] | GI50 [14] | GI50 [15]
1 | COc1cc(CCc2cccnc2)cc(OC)c1OC | > 100 µM (inactive) | > 100 µM (inactive) | > 100 µM (inactive) | > 100 µM (inactive) | 30.3 µM (inactive) | > 100 µM (inactive) | > 100 µM (inactive) | > 100 | > 100 µM (inactive) | 65.8 µM (inactive) | > 100 µM (inactive) | > 100 µM (inactive) | > 100 µM (inactive) | > 100 µM (inactive) | –
2 | N#CC(c1ccc(Cl)cc1)c1cccc(Cl)n1 (stereo unspecified) | 60.1 µM (inactive) | – | 97.9 µM (inactive) | > 100 µM (inactive) | 30.2 µM (inactive) | – | 33.2 µM (inactive) | – | > 100 µM (inactive) | 22.4 µM (inactive) | > 100 µM (inactive) | 55.8 µM (inactive) | 91 µM (inactive) | 54.3 µM (inactive) | 54.8 µM (inactive)
3 | N#CC1(C=O)c2ccccc2C=CN1C(=O)c1ccccc1 (stereo unspecified) | 33.7 µM (inactive) | – | 29.6 µM (inactive) | 73.6 µM (inactive) | 23.4 µM (inactive) | – | 63.5 µM (inactive) | 40.7 | 4.3 µM (inactive) | 27.9 µM (inactive) | 58.3 µM (inactive) | 18.7 µM (inactive) | – | 50 µM (inactive) | 61.8 µM (inactive)
4 | NC(=S)N/N=C/c1cn(CCCl)c2ccccc12 | 52.1 µM (inactive) | – | – | – | 21.9 µM (inactive) | 25 µM (inactive) | 90.2 µM (inactive) | 8.69 | 43.6 µM (inactive) | 11.9 µM (inactive) | > 100 µM (inactive) | 14.2 µM (inactive) | 89.5 µM (inactive) | 89.7 µM (inactive) | 72.1 µM (inactive)
5 | CC12CP(=O)(c3ccccc3)CC1C2(Cl)Cl (stereo unspecified) | > 100 µM (inactive) | > 100 µM (inactive) | > 100 µM (inactive) | > 100 µM (inactive) | – | > 100 µM (inactive) | > 100 µM (inactive) | – | > 100 µM (inactive) | > 100 µM (inactive) | > 100 µM (inactive) | > 100 µM (inactive) | > 100 µM (inactive) | > 100 µM (inactive) | –
6 | Cc1c(Cl)ccc2[s+]snc12 | 33 µM (inactive) | 21.4 µM (inactive) | 25.3 µM (inactive) | 55 µM (inactive) | – | 23.7 µM (inactive) | 62.7 µM (inactive) | 46.2 | 27.7 µM (inactive) | 19.6 µM (inactive) | 73.3 µM (inactive) | 26.7 µM (inactive) | 51.6 µM (inactive) | 24.3 µM (inactive) | 29.2 µM (inactive)

From ChEMBL document CHEMBL1201862, “PubChem BioAssay data set” (2004)
